# Experimental data from ChEMBL document CHEMBL5678818, “Discovery of potent SOS1 inhibitors that block RAS activation via disruption of the RAS-SOS1 interaction” (Proc Natl Acad Sci U S A, 2019).
# Experiments:
# [1] = system: Tyrosine-protein kinase ABL1 (Homo sapiens), P00519 [F317I]; assay: Inhibition of phosphorylated ABL1 F317I mutant (unknown origin) assessed as residual activity at 1000 nM by KINOMEscan analysis relative to control
# [2] = system: Tyrosine-protein kinase ABL1 (Homo sapiens), P00519 [T315I]; assay: Inhibition of nonphosphorylated ABL1 T315I mutant (unknown origin) assessed as residual activity at 1000 nM by KINOMEscan analysis relative to control
# [3] = target: T1, Cyclin-dependent kinase 11A (Homo sapiens) (UniProt Q9UQ88); assay: Inhibition of CDC2L2 (unknown origin) assessed as residual activity at 1000 nM by KINOMEscan analysis relative to control
# T1 sequence (whole entry): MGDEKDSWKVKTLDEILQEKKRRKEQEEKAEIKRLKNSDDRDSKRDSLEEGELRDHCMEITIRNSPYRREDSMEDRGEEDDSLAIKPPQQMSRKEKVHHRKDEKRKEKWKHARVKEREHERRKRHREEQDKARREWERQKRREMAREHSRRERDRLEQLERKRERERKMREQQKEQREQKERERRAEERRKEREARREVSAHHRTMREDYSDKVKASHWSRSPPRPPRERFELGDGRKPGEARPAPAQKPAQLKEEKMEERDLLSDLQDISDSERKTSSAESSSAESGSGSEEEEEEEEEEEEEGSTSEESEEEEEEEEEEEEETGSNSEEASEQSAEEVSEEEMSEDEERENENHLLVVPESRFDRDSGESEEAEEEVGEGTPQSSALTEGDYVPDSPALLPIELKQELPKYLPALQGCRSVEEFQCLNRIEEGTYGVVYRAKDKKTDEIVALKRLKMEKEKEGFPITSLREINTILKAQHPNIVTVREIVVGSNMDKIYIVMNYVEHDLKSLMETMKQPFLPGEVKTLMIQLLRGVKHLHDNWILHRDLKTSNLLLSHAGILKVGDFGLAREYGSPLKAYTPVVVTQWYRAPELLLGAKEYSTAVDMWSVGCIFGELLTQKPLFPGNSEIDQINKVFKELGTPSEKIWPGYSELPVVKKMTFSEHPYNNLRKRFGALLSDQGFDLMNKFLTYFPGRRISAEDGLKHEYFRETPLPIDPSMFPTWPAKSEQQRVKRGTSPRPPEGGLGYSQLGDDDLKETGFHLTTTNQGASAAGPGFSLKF
# [4] = target: Cyclin-dependent kinase 11B (Homo sapiens) (UniProt P21127); assay: Inhibition of CDK11 (unknown origin) assessed as residual activity at 1000 nM by KINOMEscan analysis relative to control
# Cyclin-dependent kinase 11B (Homo sapiens), sequence (P21127 whole entry): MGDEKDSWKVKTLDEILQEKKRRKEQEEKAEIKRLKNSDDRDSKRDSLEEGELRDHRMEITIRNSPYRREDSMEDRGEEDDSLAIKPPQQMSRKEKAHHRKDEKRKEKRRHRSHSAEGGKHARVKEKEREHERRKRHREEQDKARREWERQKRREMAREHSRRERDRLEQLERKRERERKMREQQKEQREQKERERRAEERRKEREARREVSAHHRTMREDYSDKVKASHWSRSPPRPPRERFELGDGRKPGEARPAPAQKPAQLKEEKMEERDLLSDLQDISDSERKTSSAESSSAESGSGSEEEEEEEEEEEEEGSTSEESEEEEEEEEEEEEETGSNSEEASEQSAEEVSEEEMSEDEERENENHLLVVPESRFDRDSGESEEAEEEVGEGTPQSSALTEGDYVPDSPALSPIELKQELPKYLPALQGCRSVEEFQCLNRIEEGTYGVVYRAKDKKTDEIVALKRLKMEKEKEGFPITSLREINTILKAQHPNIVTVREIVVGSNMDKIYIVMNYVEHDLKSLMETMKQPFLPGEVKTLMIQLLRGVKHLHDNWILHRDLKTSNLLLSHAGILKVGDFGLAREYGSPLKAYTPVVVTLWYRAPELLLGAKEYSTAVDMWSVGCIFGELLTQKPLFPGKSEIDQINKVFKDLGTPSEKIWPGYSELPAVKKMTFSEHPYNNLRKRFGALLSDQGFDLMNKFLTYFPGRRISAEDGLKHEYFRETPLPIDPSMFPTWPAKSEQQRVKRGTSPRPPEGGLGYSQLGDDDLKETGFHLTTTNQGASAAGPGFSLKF
# [5] = target: T2, Serine/threonine-protein kinase DCLK1 (Homo sapiens) (UniProt O15075); assay: Inhibition of DCAMKL1 (unknown origin) assessed as residual activity at 1000 nM by KINOMEscan analysis relative to control
# T2 sequence (whole entry): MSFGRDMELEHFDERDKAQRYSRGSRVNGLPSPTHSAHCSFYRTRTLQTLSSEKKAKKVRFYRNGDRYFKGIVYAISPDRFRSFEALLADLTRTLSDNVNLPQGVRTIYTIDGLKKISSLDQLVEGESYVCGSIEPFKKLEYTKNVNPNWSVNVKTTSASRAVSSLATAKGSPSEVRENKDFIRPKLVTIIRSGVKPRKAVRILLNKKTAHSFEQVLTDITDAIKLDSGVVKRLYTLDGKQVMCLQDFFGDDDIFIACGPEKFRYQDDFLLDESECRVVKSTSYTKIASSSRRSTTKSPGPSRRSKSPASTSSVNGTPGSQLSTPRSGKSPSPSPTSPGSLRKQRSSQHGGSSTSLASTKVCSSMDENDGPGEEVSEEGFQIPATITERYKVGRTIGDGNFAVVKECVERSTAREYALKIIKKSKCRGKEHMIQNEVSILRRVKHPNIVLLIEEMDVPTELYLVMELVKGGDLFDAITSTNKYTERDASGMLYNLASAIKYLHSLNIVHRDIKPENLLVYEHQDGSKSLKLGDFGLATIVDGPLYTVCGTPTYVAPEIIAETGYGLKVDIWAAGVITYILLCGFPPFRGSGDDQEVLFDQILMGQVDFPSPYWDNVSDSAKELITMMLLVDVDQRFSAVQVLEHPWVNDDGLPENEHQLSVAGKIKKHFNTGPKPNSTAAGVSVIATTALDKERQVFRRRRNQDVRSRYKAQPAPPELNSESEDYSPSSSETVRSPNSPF
# [6] = target: T3, Serine/threonine-protein kinase Nek11 (Homo sapiens) (UniProt Q8NG66); assay: Inhibition of NEK11 (unknown origin) assessed as residual activity at 1000 nM by KINOMEscan analysis relative to control
# T3 sequence (whole entry): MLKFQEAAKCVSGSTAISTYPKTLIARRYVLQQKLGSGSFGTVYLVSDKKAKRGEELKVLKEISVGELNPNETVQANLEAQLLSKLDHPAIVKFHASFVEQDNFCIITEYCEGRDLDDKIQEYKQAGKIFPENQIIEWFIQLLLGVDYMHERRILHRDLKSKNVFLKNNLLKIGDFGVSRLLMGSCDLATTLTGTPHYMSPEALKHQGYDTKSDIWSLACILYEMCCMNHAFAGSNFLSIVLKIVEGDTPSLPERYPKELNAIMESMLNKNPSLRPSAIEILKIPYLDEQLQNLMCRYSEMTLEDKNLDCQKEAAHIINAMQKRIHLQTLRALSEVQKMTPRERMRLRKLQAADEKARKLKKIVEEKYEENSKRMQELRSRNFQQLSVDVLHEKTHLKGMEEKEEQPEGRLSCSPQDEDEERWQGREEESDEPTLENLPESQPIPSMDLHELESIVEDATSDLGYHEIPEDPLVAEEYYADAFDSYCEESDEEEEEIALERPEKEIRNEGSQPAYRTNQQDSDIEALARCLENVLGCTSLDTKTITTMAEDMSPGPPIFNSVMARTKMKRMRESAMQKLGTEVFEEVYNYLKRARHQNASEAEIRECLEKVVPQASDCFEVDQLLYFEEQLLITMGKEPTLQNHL
# [7] = target: Serine/threonine-protein kinase NIM1 (Homo sapiens) (UniProt Q8IY84); assay: Inhibition of NIM1 (unknown origin) assessed as residual activity at 1000 nM by KINOMEscan analysis relative to control
# Serine/threonine-protein kinase NIM1 (Homo sapiens), sequence (Q8IY84 whole entry): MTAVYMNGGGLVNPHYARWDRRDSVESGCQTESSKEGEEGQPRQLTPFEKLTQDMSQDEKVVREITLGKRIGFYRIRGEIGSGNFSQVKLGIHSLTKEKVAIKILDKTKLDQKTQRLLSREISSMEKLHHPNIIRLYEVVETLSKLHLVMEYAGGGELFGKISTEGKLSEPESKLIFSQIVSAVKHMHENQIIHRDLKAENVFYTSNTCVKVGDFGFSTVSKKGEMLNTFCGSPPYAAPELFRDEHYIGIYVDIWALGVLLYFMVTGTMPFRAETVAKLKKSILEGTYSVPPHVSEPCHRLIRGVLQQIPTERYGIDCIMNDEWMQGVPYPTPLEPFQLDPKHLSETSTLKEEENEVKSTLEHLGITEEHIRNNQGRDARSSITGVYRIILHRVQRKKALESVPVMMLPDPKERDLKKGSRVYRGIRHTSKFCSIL
# [8] = target: Serine/threonine-protein kinase PLK1 (Homo sapiens) (UniProt P53350); assay: Inhibition of PLK1 (unknown origin) assessed as residual activity at 1000 nM by KINOMEscan analysis relative to control
# Serine/threonine-protein kinase PLK1 (Homo sapiens), sequence (P53350 whole entry): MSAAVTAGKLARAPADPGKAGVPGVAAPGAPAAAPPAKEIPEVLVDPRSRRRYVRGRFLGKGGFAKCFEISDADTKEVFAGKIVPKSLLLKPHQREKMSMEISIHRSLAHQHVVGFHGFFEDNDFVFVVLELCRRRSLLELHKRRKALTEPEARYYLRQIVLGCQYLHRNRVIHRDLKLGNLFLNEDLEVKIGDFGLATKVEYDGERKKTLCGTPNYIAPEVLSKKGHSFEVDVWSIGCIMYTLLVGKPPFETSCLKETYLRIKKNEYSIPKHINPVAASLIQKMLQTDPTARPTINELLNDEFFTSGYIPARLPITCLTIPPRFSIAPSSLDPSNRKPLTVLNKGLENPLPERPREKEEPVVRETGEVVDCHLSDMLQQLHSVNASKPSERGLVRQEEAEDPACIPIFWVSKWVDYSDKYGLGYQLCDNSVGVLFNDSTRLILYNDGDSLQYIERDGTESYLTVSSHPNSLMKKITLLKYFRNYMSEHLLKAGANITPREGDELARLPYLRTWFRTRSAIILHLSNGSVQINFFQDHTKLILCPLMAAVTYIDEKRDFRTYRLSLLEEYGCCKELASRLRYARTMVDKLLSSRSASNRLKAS
# [9] = target: Tyrosine-protein kinase Tec (Homo sapiens) (UniProt P42680); assay: Inhibition of TEC (unknown origin) assessed as residual activity at 1000 nM by KINOMEscan analysis relative to control
# Tyrosine-protein kinase Tec (Homo sapiens), sequence (P42680 whole entry, looked up): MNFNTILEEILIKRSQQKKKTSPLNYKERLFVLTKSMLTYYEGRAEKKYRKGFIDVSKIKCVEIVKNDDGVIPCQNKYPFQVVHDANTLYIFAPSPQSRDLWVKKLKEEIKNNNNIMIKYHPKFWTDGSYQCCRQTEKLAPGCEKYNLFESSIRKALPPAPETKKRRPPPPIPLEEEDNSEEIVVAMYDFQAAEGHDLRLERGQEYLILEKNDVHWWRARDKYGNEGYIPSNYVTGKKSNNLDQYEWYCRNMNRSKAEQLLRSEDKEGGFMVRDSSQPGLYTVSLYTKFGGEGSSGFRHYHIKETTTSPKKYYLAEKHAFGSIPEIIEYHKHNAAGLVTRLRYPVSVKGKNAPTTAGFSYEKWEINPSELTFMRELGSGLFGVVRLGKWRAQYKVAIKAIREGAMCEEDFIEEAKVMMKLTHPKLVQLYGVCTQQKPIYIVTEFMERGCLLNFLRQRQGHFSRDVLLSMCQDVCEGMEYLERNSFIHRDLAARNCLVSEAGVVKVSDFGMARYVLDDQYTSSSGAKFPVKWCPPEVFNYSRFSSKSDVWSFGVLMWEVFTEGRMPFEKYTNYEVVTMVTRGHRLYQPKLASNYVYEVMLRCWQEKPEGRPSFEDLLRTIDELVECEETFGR
Compound,Activity [1] [%],Activity [2] [%],Activity [3] [%],Activity [4] [%],Activity [5] [%],Activity [6] [%],Activity [7] [%],Activity [8] [%],Activity [9] [%]
COc1cc2ncnc(N[C@H](C)c3cccc4ccccc34)c2cc1OC,71,100,99,84,76,81,78,92,98
COc1cc2nc(C)nc(N[C@H](C)c3cccc(-c4cn[nH]c4)c3)c2cc1OC,75,95,100,100,64,93,88,100,85
